The source of these data is patent publication US8735322B2, “Herbicides” (Syngenta Limited, priority 2008, dated 2014).

Assay type in all cases: in vivo
Test [1] has as its system Amaranthus retroflexus (AMARE). The test can be described thus: Example B pre-emergence herbicidal activity, glasshouse pot test. Conditions: 312 h, rate 1000 g/ha, evaluated after 13 days, read-out: herbicidal damage AMARE (100=total damage to plant; 0=no damage to plant). The procedure:
(§1) Seeds of a variety of test species were sown in standard soil in pots. After cultivation for one day (pre-emergence) or after 8 days cultivation (post-emergence) under controlled conditions in a glasshouse (at 24/16° C., day/night; 14 hours light; 65% humidity), the plants were sprayed with an aqueous spray solution derived from the formulation of the technical active ingredient in acetone/water (50:50) solution containing 0.5% Tween 20 (polyoxyethelyene sorbitan monolaurate, CAS RN 9005-64-5). The test plants were then grown in a glasshouse under controlled conditions in a glasshouse (at 24/16° C., day/night; 14 hours light; 65% humidity) and watered twice daily. After 13 days for pre and post-emergence, the test was evaluated (100=total damage to plant; 0=no damage to plant). Alopecurus myosuroides (ALOMY), Avena fatua (AVEFA), Setaria faberi (SETFA), Echinochloa crus-galli (ECHCG), Solanum nigrum (SOLNI) and Amaranthus retroflexus (AMARE) Pre-Emergence Activity

The test system of test [2] is Echinochloa crus-galli (ECHCG). Described as above. As to conditions: 312 h, rate 1000 g/ha, evaluated after 13 days, read-out: herbicidal damage ECHCG (100=total damage to plant; 0=no damage to plant). Here is the method: as §1
Test [3] concerns Alopecurus myosuroides (ALOMY). The test is described as above. As to conditions: 312 h, rate 1000 g/ha, evaluated after 13 days, read-out: herbicidal damage ALOMY (100=total damage to plant; 0=no damage to plant). The procedure:
as §1

Test [4] relates to Solanum nigrum (SOLNI). The test is described as above. Conditions: 312 h, rate 1000 g/ha, evaluated after 13 days, read-out: herbicidal damage SOLNI (100=total damage to plant; 0=no damage to plant). Here is the method:
as §1

Test [5] deals with Avena fatua (AVEFA). The test is described as above. Conditions: 312 h, rate 1000 g/ha, evaluated after 13 days, read-out: herbicidal damage AVEFA (100=total damage to plant; 0=no damage to plant). Here is the method: as §1
Test [6] relates to Setaria faberi (SETFA). Described as above. As to conditions: 312 h, rate 1000 g/ha, evaluated after 13 days, read-out: herbicidal damage SETFA (100=total damage to plant; 0=no damage to plant). The procedure:
as §1

Test [7] deals with Amaranthus retroflexus (AMARE). Nature of the test: Example B post-emergence herbicidal activity, glasshouse pot test. As to conditions: 312 h, rate 1000 g/ha, evaluated after 13 days, read-out: herbicidal damage AMARE (100=total damage to plant; 0=no damage to plant). Here is the method:
as §1, with “Post-Emergence” for “Pre-Emergence”

The test system of test [8] is Echinochloa crus-galli (ECHCG). The description is as above. As to conditions: 312 h, rate 1000 g/ha, evaluated after 13 days, read-out: herbicidal damage ECHCG (100=total damage to plant; 0=no damage to plant). Here is the method: as §1, with “Post-Emergence” for “Pre-Emergence”
Test [9] deals with Alopecurus myosuroides (ALOMY). The description is as above. Conditions: 312 h, rate 1000 g/ha, evaluated after 13 days, read-out: herbicidal damage ALOMY (100=total damage to plant; 0=no damage to plant). Here is the method: as §1, with “Post-Emergence” for “Pre-Emergence”
Test [10] concerns Solanum nigrum (SOLNI). The test is described as above. As to conditions: 312 h, rate 1000 g/ha, evaluated after 13 days, read-out: herbicidal damage SOLNI (100=total damage to plant; 0=no damage to plant). Here is the method:
as §1, with “Post-Emergence” for “Pre-Emergence”

The test system of test [11] is Avena fatua (AVEFA). The test is described as above. Conditions: 312 h, rate 1000 g/ha, evaluated after 13 days, read-out: herbicidal damage AVEFA (100=total damage to plant; 0=no damage to plant). Here is the method:
as §1, with “Post-Emergence” for “Pre-Emergence”

The test system of test [12] is Setaria faberi (SETFA). The description is as above. Conditions: 312 h, rate 1000 g/ha, evaluated after 13 days, read-out: herbicidal damage SETFA (100=total damage to plant; 0=no damage to plant). The procedure: as §1, with “Post-Emergence” for “Pre-Emergence”

Consider `Cc1ccc(-c2cccnc2OCC2CC2)cc1C1=C(O)CC(CC2CCOCC2)CC1=O` (stereo not drawn) [Compound A-27], for which the pest or weed control at 1000 g/ha (in test [1]; in test [2]; in test [3]; with Solanum nigrum (SOLNI) [4]; with Avena fatua (AVEFA) [5]; in the test with Setaria faberi (SETFA) [6]) was 0% throughout. Moreover, the pest or weed control at 1000 g/ha in test [7] turned out to be 0%; in test [8], 30%; in test [9] it was 10%; with Solanum nigrum (SOLNI) [10], 0%; in the test with Avena fatua (AVEFA) [11], 0%; in the test on Setaria faberi (SETFA) [12], 60%.
As for `Cc1ccc(-c2ccc(OC(F)(F)F)cc2)cc1C1=C(O)CC(CC2CCOCC2)CC1=O` (stereo not drawn) [Compound A-29], the pest or weed control at 1000 g/ha is 50% in test [1]; 20% in test [2]; 20% in [3]; 30% with Solanum nigrum (SOLNI) [4]; 0% with Avena fatua (AVEFA) [5]; 0% in the test with Setaria faberi (SETFA) [6]. Besides, the pest or weed control at 1000 g/ha is 70% in test [7]; 60% in test [8]; 10% in [9]; 20% in the test on Solanum nigrum (SOLNI) [10]; 0% in the test with Avena fatua (AVEFA) [11]; 60% in the test with Setaria faberi (SETFA) [12].
As for `CCc1cc(-c2ccc(C)cc2)cc(CC)c1C1=C(O)CC(CC2CCOCC2)CC1=O` (stereo not drawn) [Compound A-33], the pest or weed control at 1000 g/ha was found to be 0% in test [1]; 90% in [2]; 50% in test [3]; 0% with Solanum nigrum (SOLNI) [4]; 60% in the test on Avena fatua (AVEFA) [5]; 100% in the test with Setaria faberi (SETFA) [6]. The pest or weed control at 1000 g/ha in [7] came to 60%; in test [8] it was 100%; in test [9] it was 30%; in the test on Solanum nigrum (SOLNI) [10], 70%; in the test on Avena fatua (AVEFA) [11], 70%; in the test on Setaria faberi (SETFA) [12], 80%.
Consider `CCc1cc(-c2ccc(Cl)cc2)cc(CC)c1C1=C(O)CC(CC2CCOCC2)CC1=O` (stereo not drawn) [Compound A-34], for which the pest or weed control at 1000 g/ha in [1] was determined as 0%; in test [2] it was 100%; in test [3], 50%; in the test with Solanum nigrum (SOLNI) [4], 0%; in the test with Avena fatua (AVEFA) [5], 60%; in the test with Setaria faberi (SETFA) [6] it was 90%. The pest or weed control at 1000 g/ha worked out at 20% in [7]; 100% in [8]; 50% in test [9]; 0% in the test on Solanum nigrum (SOLNI) [10]; 100% in the test on Avena fatua (AVEFA) [11]; 90% with Setaria faberi (SETFA) [12].
For the compound `Cc1ccc(-c2cc(C)c(C3=C(O)CC(CC4CCOCC4)CC3=O)c(C)c2)cc1` (stereo not drawn) [Compound A-36], the pest or weed control at 1000 g/ha was 0% in [1]; 90% in test [2]; 60% in test [3]; 0% in the test with Solanum nigrum (SOLNI) [4]; 40% in the test on Avena fatua (AVEFA) [5]; 100% in the test on Setaria faberi (SETFA) [6]. Besides, the pest or weed control at 1000 g/ha in [7] was found to be 0%; in test [8] it was 100%; in test [9] it was 70%; in the test with Solanum nigrum (SOLNI) [10] it was 50%; in the test on Avena fatua (AVEFA) [11], 70%; with Setaria faberi (SETFA) [12], 100%.
Regarding `Cc1cc(-c2ccc(Cl)cc2)cc(C)c1C1=C(O)CC(CC2CCOCC2)CC1=O` (stereo not drawn) [Compound A-37], the pest or weed control at 1000 g/ha is 20% in test [1]; 100% in [2]; 80% in [3]; 20% with Solanum nigrum (SOLNI) [4]; 90% with Avena fatua (AVEFA) [5]; 100% in the test on Setaria faberi (SETFA) [6]. The pest or weed control at 1000 g/ha in test [7] came out at 40%; in test [8], 100%; in test [9], 90%; in the test on Solanum nigrum (SOLNI) [10], 70%; with Avena fatua (AVEFA) [11] it was 100%; with Setaria faberi (SETFA) [12] it was 100%.
With `Cc1cc(-c2ccc(C(F)(F)F)cc2)cc(C)c1C1=C(O)CC(CC2CCOCC2)CC1=O` (stereo not drawn) [Compound A-38], the pest or weed control at 1000 g/ha in test [1] stood at 0%; in [2], 100%; in test [3], 30%; with Solanum nigrum (SOLNI) [4] it was 0%; with Avena fatua (AVEFA) [5], 20%; with Setaria faberi (SETFA) [6], 100%. For the same compound, the pest or weed control at 1000 g/ha in [7] was found to be 0%; in [8] it was 90%; in test [9], 30%; in the test with Solanum nigrum (SOLNI) [10], 20%; in the test on Avena fatua (AVEFA) [11], 40%; with Setaria faberi (SETFA) [12], 100%.
As to `Cc1ccc(-c2ccc(F)cc2)cc1C1=C(O)CC(CC2CCOCC2)CC1=O` (stereo not drawn) [Compound A-39], the pest or weed control at 1000 g/ha (in [1]; in [2]; in [3]; in the test on Solanum nigrum (SOLNI) [4]; in the test on Avena fatua (AVEFA) [5]; with Setaria faberi (SETFA) [6]) was 0% throughout. The pest or weed control at 1000 g/ha in test [7] amounted to 0%; in test [8] it was 80%; in [9] it was 60%; with Solanum nigrum (SOLNI) [10], 0%; in the test on Avena fatua (AVEFA) [11], 80%; in the test on Setaria faberi (SETFA) [12], 90%.
On to `Cc1ccc(-c2ccc(F)c(F)c2)cc1C1=C(O)CC(CC2CCOCC2)CC1=O` (stereo not drawn) [Compound A-40], for which the pest or weed control at 1000 g/ha stood at 0% in test [1]; 30% in [2]; 0% in test [3]; 0% in the test with Solanum nigrum (SOLNI) [4]; 0% in the test with Avena fatua (AVEFA) [5]; 0% with Setaria faberi (SETFA) [6]. The pest or weed control at 1000 g/ha came to 30% in [7]; 100% in test [8]; 70% in test [9]; 0% in the test on Solanum nigrum (SOLNI) [10]; 70% in the test on Avena fatua (AVEFA) [11]; 90% in the test with Setaria faberi (SETFA) [12].
For `Cc1cc(-c2ccccc2)cc(C)c1C1=C(O)CC(CC2CCOCC2)CC1=O` (stereo not drawn) [Compound A-41], the pest or weed control at 1000 g/ha in test [1] is 0%; in test [2] it was 100%; in test [3], 90%; with Solanum nigrum (SOLNI) [4] it was 0%; in the test with Avena fatua (AVEFA) [5] it was 80%; with Setaria faberi (SETFA) [6], 100%. The pest or weed control at 1000 g/ha in [7] is 40%; in [8], 100%; in test [9], 90%; in the test on Solanum nigrum (SOLNI) [10] it was 40%; with Avena fatua (AVEFA) [11] it was 70%; in the test on Setaria faberi (SETFA) [12] it was 100%.
